Source: publication PMC10793102 (Acta Pharmaceutica Sinica. B, 2023)
pEC50: −log10 of the molar value. Like-named read-outs stand apart in the source and are kept apart here.

What was measured:
L929 = test: Cell viability assay, protection from necroptosis in L929 cells; format: cell-based, mouse; conditions: for pEC50: Mus musculus, L929, 16 h
FADD−/− Jurkat = test: Cell viability assay, protection from necroptosis in FADD−/− Jurkat cells; format: cell-based; conditions: Homo sapiens, 16 h
[1] = read-out: EC50 FADD−/− Jurkat T + S
[2] = read-out: EC50 FADD−/− Jurkat TNFα

CCN1CCN(Cc2ccc(NC(=O)c3ccc(-n4cnc5cc(C(=O)NC)ccc54)cc3)cc2C(F)(F)F)CC1 [compound 13]
protective effects against cell death of L929 cells induced by TNFα (L929; TNFα 40 ng/mL, 15 h, Fig. 2A): relatively weaker

CNC(=O)c1ccc2c(c1)ncn2-c1ccc(CC(=O)N(O)Cc2ccccc2)cc1 [compound 14]
pEC50 (L929; read-out: EC50 L929 T + S): 7.01 | pEC50 (L929; read-out: EC50 L929 TNFα): 7.30 | pEC50 (FADD−/− Jurkat; [1]): < 5.00 | pEC50 (FADD−/− Jurkat; [2]): 5.42

CNC(=O)c1ccc2c(c1)ncn2-c1ccc(CNC(=O)c2n[nH]c(Cc3ccccc3)n2)cc1 [compound 15]
pEC50 (FADD−/− Jurkat; [2]): < 5.00

CNC(=O)c1ccc2c(c1)ncn2-c1ccc(CNC(=O)c2noc(Cc3ccccc3)n2)cc1 [compound 16]
pEC50 (L929; read-out: EC50 L929 TNFα): 6.02 | pEC50 (FADD−/− Jurkat; [1]): 6.75 | pEC50 (FADD−/− Jurkat; [2]): 7.62

CNC(=O)c1ccc2c(c1)ncn2-c1ccc(CNC(=O)c2nnc(Cc3ccccc3)o2)cc1 [compound 17]
pEC50 (FADD−/− Jurkat; [1]): 5.82 | pEC50 (FADD−/− Jurkat; [2]): 6.73

CNC(=O)c1ccc2c(c1)ncn2-c1ccc(CNC(=O)c2ncc(Cc3ccccc3)o2)cc1 [compound 18]
pEC50 (L929; read-out: EC50 L929 T + S): 5.40 | pEC50 (L929; read-out: EC50 L929 TNFα): 6.08 | pEC50 (FADD−/− Jurkat; [1]): 6.42 | pEC50 (FADD−/− Jurkat; [2]): 7.15

CNC(=O)c1ccc2c(c1)ncn2-c1ccc(CNC(=O)c2nocc2Cc2ccccc2)cc1 [compound 19]
pEC50 (L929; read-out: EC50 L929 T + S): 5.48 | pEC50 (L929; read-out: EC50 L929 TNFα): 5.67 | pEC50 (FADD−/− Jurkat; [1]): 6.95 | pEC50 (FADD−/− Jurkat; [2]): 8.09

CNC(=O)c1ccc2ncn(-c3ccc(CNC(=O)c4cc(Cc5ccccc5)nn4C)cc3)c2c1 [compound 21]
pEC50 (L929; read-out: EC50 L929 T + S): < 5.00 | pEC50 (L929; read-out: EC50 L929 TNFα): < 5.00 | pEC50 (FADD−/− Jurkat; [1]): < 5.00 | pEC50 (FADD−/− Jurkat; [2]): < 5.00

CCn1nc(C(=O)NCc2ccc(-n3cnc4cc(C(=O)NC)ccc43)cc2)cc1Cc1ccccc1 [compound 22]
pEC50 (FADD−/− Jurkat; [1]): 7.37 | pEC50 (FADD−/− Jurkat; [2]): 8.23

CCCn1nc(C(=O)NCc2ccc(-n3cnc4cc(C(=O)NC)ccc43)cc2)cc1Cc1ccccc1 [compound 23]
pEC50 (FADD−/− Jurkat; [1]): 6.13 | pEC50 (FADD−/− Jurkat; [2]): 6.96

CNC(=O)c1ccc2c(c1)ncn2-c1ccc(CNC(=O)c2cn(Cc3ccccc3)nn2)cc1 [compound 24]
pEC50 (FADD−/− Jurkat; [1]): 5.80 | pEC50 (FADD−/− Jurkat; [2]): 6.63

CNC(=O)c1ccc2c(c1)ncn2-c1ccc(CNC(=O)c2nnn(Cc3ccccc3)n2)cc1 [compound 25]
pEC50 (FADD−/− Jurkat; [1]): 6.82 | pEC50 (FADD−/− Jurkat; [2]): 7.62

CNC(=O)c1ccc2c(c1)ncn2-c1ccc(CNC(=O)c2ccc(F)n2Cc2ccccc2)cc1 [compound 26]
pEC50 (L929; read-out: EC50 L929 T + S): 7.47 | pEC50 (L929; read-out: EC50 L929 TNFα): 8.22 | pEC50 (FADD−/− Jurkat; [1]): 7.77 | pEC50 (FADD−/− Jurkat; [2]): 8.77

CNC(=O)c1ccc2c(ccn2-c2ccc(CNC(=O)c3cc(Cc4ccccc4)n(C)n3)cc2)c1 [compound 28]
pEC50 (L929; read-out: EC50 L929 T + S): < 5.00 | pEC50 (L929; read-out: EC50 L929 TNFα): < 5.00 | pEC50 (FADD−/− Jurkat; [1]): < 5.00 | pEC50 (FADD−/− Jurkat; [2]): < 5.00

CNC(=O)c1ccc2c(cnn2-c2ccc(CNC(=O)c3cc(Cc4ccccc4)n(C)n3)cc2)c1 [compound 29]
pEC50 (L929; read-out: EC50 L929 T + S): < 5.00 | pEC50 (L929; read-out: EC50 L929 TNFα): < 5.00 | pEC50 (FADD−/− Jurkat; [1]): < 5.00 | pEC50 (FADD−/− Jurkat; [2]): < 5.00

CN(C)CCNC(=O)c1ccc2c(c1)ncn2-c1ccc(CNC(=O)c2cnn(C)c2Cc2ccccc2)cc1 [compound 30]
pEC50 (L929; read-out: EC50 L929 T + S): < 5.00 | pEC50 (L929; read-out: EC50 L929 TNFα): < 5.00 | pEC50 (FADD−/− Jurkat; [1]): 6.43 | pEC50 (FADD−/− Jurkat; [2]): 7.28

CN1CCN(CCNC(=O)c2ccc3c(c2)ncn3-c2ccc(CNC(=O)c3cnn(C)c3Cc3ccccc3)cc2)CC1 [compound 31]
pEC50 (L929; read-out: EC50 L929 T + S): < 5.00 | pEC50 (L929; read-out: EC50 L929 TNFα): 5.25 | pEC50 (FADD−/− Jurkat; [1]): 9.22 | pEC50 (FADD−/− Jurkat; [2]): 11.00

Cn1ncc(C(=O)NCc2ccc(-n3cnc4cc(C(=O)NCCN5CCOCC5)ccc43)cc2)c1Cc1ccccc1 [compound 32]
pEC50 (L929; read-out: EC50 L929 T + S): 6.72 | pEC50 (L929; read-out: EC50 L929 TNFα): 7.49 | pEC50 (FADD−/− Jurkat; [1]): 8.52 | pEC50 (FADD−/− Jurkat; [2]): 9.30

COc1cc2ncn(-c3ccc(CNC(=O)c4cnn(C)c4Cc4ccccc4)cc3)c2cc1OC [compound 33]
pEC50 (L929; read-out: EC50 L929 T + S): 9.40 | pEC50 (L929; read-out: EC50 L929 TNFα): 10.22 | pEC50 (FADD−/− Jurkat; [1]): 10.00 | pEC50 (FADD−/− Jurkat; [2]): 10.70

COc1ccc2c(c1)ncn2-c1ccc(CNC(=O)c2cnn(C)c2Cc2ccccc2)cc1 [compound 34]
pEC50 (L929; read-out: EC50 L929 T + S): 10.10 | pEC50 (L929; read-out: EC50 L929 TNFα): 11.30 | pEC50 (FADD−/− Jurkat; [1]): 10.00 | pEC50 (FADD−/− Jurkat; [2]): 11.70

COc1ccc2ncn(-c3ccc(CNC(=O)c4cnn(C)c4Cc4ccccc4)cc3)c2c1 [compound 35]
pEC50 (L929; read-out: EC50 L929 T + S): 9.40 | pEC50 (L929; read-out: EC50 L929 TNFα): 10.52 | pEC50 (FADD−/− Jurkat; [1]): 9.22 | pEC50 (FADD−/− Jurkat; [2]): 11.00

COc1ccc2c(cnn2-c2ccc(CNC(=O)c3cnn(C)c3Cc3ccccc3)cc2)c1 [compound 36]
pEC50 (FADD−/− Jurkat; [1]): 6.89 | pEC50 (FADD−/− Jurkat; [2]): 7.74

COc1cc2ncnc(-c3ccc(CNC(=O)c4cnn(C)c4Cc4ccccc4)cc3)c2cc1OC [compound 37]
pEC50 (FADD−/− Jurkat; [1]): 5.82 | pEC50 (FADD−/− Jurkat; [2]): 6.63

Cn1ncc(C(=O)NCc2ccc(-c3ncnc4[nH]ccc34)cc2)c1Cc1ccccc1 [compound 38]
pEC50 (L929; read-out: EC50 L929 T + S): < 5.00 | pEC50 (L929; read-out: EC50 L929 TNFα): < 5.00 | pEC50 (FADD−/− Jurkat; [1]): 6.13 | pEC50 (FADD−/− Jurkat; [2]): 6.82

Cn1ncc(C(=O)NCc2ccc(-n3cnc4c(N)nccc43)cc2)c1Cc1ccccc1 [compound 40]
pEC50 (L929; read-out: EC50 L929 T + S): 8.20 | pEC50 (L929; read-out: EC50 L929 TNFα): 8.92 | pEC50 (FADD−/− Jurkat; [1]): 8.64 | pEC50 (FADD−/− Jurkat; [2]): 9.52

Cn1ncc(C(=O)NCc2ccc(-n3ncc4c(N)ncnc43)cc2)c1Cc1ccccc1 [compound 41]
pEC50 (L929; read-out: EC50 L929 T + S): 7.64 | pEC50 (L929; read-out: EC50 L929 TNFα): 8.00 | pEC50 (FADD−/− Jurkat; [1]): 8.16 | pEC50 (FADD−/− Jurkat; [2]): 9.40

Cn1ncc(C(=O)NCc2ccc(-n3ccc4c(N)ncnc43)cc2)c1Cc1ccccc1 [compound 42]
pEC50 (L929; read-out: EC50 L929 T + S): 9.05 | pEC50 (L929; read-out: EC50 L929 TNFα): 10.00 | pEC50 (FADD−/− Jurkat; [1]): 8.10 | pEC50 (FADD−/− Jurkat; [2]): 8.38

Cn1nc(C(=O)NCc2ccc(-n3cnc4c(N)ncnc43)cc2)cc1Cc1ccccc1 [compound 43]
pEC50 (L929; read-out: EC50 L929 T + S): 6.42 | pEC50 (L929; read-out: EC50 L929 TNFα): 7.60 | pEC50 (FADD−/− Jurkat; [1]): 9.52 | pEC50 (FADD−/− Jurkat; [2]): 10.22

Cn1nc(C(=O)NCc2ccc(-n3ncc4c(N)ncnc43)cc2)cc1Cc1ccccc1 [compound 44]
pEC50 (FADD−/− Jurkat; [1]): 6.35 | pEC50 (FADD−/− Jurkat; [2]): 7.15

Cn1nc(C(=O)NCc2ccc(-n3ccc4c(N)ncnc43)cc2)cc1Cc1ccccc1 [compound 45]
pEC50 (L929; read-out: EC50 L929 TNFα): 5.54 | pEC50 (FADD−/− Jurkat; [1]): 6.01 | pEC50 (FADD−/− Jurkat; [2]): 6.86

Cn1nc(C(=O)NCc2ccc(-n3ccc4c(N)nccc43)cc2)cc1Cc1ccccc1 [compound 46]
pEC50 (FADD−/− Jurkat; [1]): < 5.00 | pEC50 (FADD−/− Jurkat; [2]): 6.44

CCn1ncc(C(=O)NCc2ccc(-n3cnc4c(N)ncnc43)cc2)c1Cc1ccccc1 [compound 47]
pEC50 (L929; read-out: EC50 L929 T + S): 7.13 | pEC50 (L929; read-out: EC50 L929 TNFα): 7.66 | pEC50 (FADD−/− Jurkat; [1]): 7.46 | pEC50 (FADD−/− Jurkat; [2]): 8.92

Nc1ncnc2c1ncn2-c1ccc(CNC(=O)c2ccc(F)n2Cc2ccccc2)cc1 [compound 51]
pEC50 (L929; read-out: EC50 L929 T + S): 7.13 | pEC50 (L929; read-out: EC50 L929 TNFα): 9.05 | pEC50 (FADD−/− Jurkat; [1]): 8.80 | pEC50 (FADD−/− Jurkat; [2]): 10.00

Nc1ncnc2c1ncn2-c1ccc(CNC(=O)c2ccc(Cl)n2Cc2ccccc2)cc1 [compound 52]
pEC50 (FADD−/− Jurkat; [1]): 7.09 | pEC50 (FADD−/− Jurkat; [2]): 8.18

N#Cc1ccc(C(=O)NCc2ccc(-n3cnc4c(N)ncnc43)cc2)n1Cc1ccccc1 [compound 53]
pEC50 (FADD−/− Jurkat; [1]): 5.73 | pEC50 (FADD−/− Jurkat; [2]): 6.67

C[C@@H](NC(=O)c1cnn(C)c1Cc1ccccc1)c1ccc(-n2cnc3c(N)ncnc32)cc1 [compound 55]
pEC50 (L929; read-out: EC50 L929 T + S): 6.66 | pEC50 (L929; read-out: EC50 L929 TNFα): 7.28 | pEC50 (FADD−/− Jurkat; [1]): 6.88 | pEC50 (FADD−/− Jurkat; [2]): 7.44

Cn1ncc(C(=O)NC(C)(C)c2ccc(-n3cnc4c(N)ncnc43)cc2)c1Cc1ccccc1 [compound 56]
pEC50 (L929; read-out: EC50 L929 TNFα): 6.26 | pEC50 (FADD−/− Jurkat; [1]): 7.55 | pEC50 (FADD−/− Jurkat; [2]): 8.12

Cn1nc2c(c1Cc1ccccc1)C(=O)N(Cc1ccc(-n3cnc4c(N)ncnc43)cc1)CC2 [compound 59]
pEC50 (L929; read-out: EC50 L929 T + S): 7.41 | pEC50 (L929; read-out: EC50 L929 TNFα): 8.08 | pEC50 (FADD−/− Jurkat; [1]): 8.64 | pEC50 (FADD−/− Jurkat; [2]): 9.70

Nc1ncnc2c1ncn2-c1ccc(CN2CCc3cn(Cc4ccccc4)nc3C2=O)cc1 [compound 61]
pEC50 (FADD−/− Jurkat; [1]): 9.40 | pEC50 (FADD−/− Jurkat; [2]): 9.52
